# From patent publication US20200206349A1, “Immunothermosensitive Composite, Kit For Treating Cancer, And Use Thereof” (National Tsing Hua University, priority 2018, published 2020)
# Tests used:
# BMDCs = assay: Proinflammatory cytokines secreted by BMDCs (bead arrays); assay type: cell-based, Balb/c mice
# Method: The dendritic cells used in the experiment are dendritic cells differentiated from bone marrow cells (BMDC). […] After 10 days, suspended immature BMDCs are collected for further experiments. […] The cellular uptake of the f-PANI-GCS-R848 by the BMDCs is measured by flow cytometry and immunofluorescence staining. The experiment further includes the BMDCs treated with medium only as a control. Flow cytometry is performed to measure the cell uptake of f-PANI-GCS-R848 by BD Accuri™ C6 flow cytometer (BD Biosciences, San Jose, Calif., USA), and data are analyzed using FlowJo (Treestar, Ashland, Oreg., USA). In immunofluorescence staining, LysoTracker is used as a cell marker for endosome. The BMDCs are incubated with LysoTracker™ Red DND-99 (Thermo Fischer Scientific) containing medium for 2 hours, washed, and stained with 4′,6-diamidino-2-phenylindole (DAPI) in PBS for 10 minutes. Finally, the BMDCs are observed and imaged under a confocal laser scanning microscopy (CLSM, LSM 780, Carl Zeiss, Jena, Germany). […] The BMDCs and the culture supernatants are then collected separately. The expression of mature dendritic cell markers CD80 and CD86 in the treated BMDCs are analyzed by flow cytometry, and the concentrations of inflammatory cytokines secreted by mature dendritic cells in the supernatant are measured by […] beads arrays (CBA, BD Bioscience). The experiment further includes the BMDCs treated with medium only as negative controls (represented as “PBS”). The flow cytometry includes follow steps. The BMDCs are incubated with APC-conjugated anti-mouse CD80 antibody (eBioscience) or FITC-conjugated anti-mouse CD86 Antibody (eBioscience), and then analyzed by BD Accuri™ C6 flow cytometer.
# CT26 cells = assay: Cytotoxicity, CellTiter-Glo cell viability assay; assay type: cell-based, murine; conditions: 0.625 μg/mL to 10 μg/mL, 24 hours
# Method: The experiment further includes untreated CT26 cells, the CT26 cells treated with free R848 or the CT26 cells treated with the carrier PANI-GCS as a control. […] The CT26 cells are seeded in 96-well plates at 1×10^4 cells/well for 24 hours. […] The viability of the CT26 cells is evaluated by the CellTiter-Glo® Luminescent Cell Viability Assay kit (Promega, Madison, Wis., USA).
# CT26 primary tumor = assay: Animal treatment test: primary tumor size and survival; assay type: in vivo, Balb/c mice; conditions: without NIR; treated day 14, 21, 28
# Method: Experimental animals used in the experiments are Balb/c mice (6-8 weeks old), which are purchased from BioLASCO Taiwan Co., Ltd. (Taipei, Taiwan). All the animal experiments are performed according to “Guide for the Care and Use of Laboratory Animals” developed by the Institute of Laboratory Animal Resources, National Research Council. Balb/c mice are inoculated with 1×10^6 CT26 cells subcutaneously on their right flanks (primary tumor). Fourteen days later when the tumor diameter is about 5 mm (or the tumor volumes reach 150-200 mm^3), the Balb/c tumor mice are established and further used to test the cancer treatment effects on the immunothermosensitive composition and the kit for treating cancer of the present disclosure, and whether the immunothermosensitive composition and the kit for treating cancer of the present disclosure can achieve the dual effects of hyperthermia therapy and immunotherapy.
# Further, the cancer treatment effects on the immunothermosensitive composition and the kit for treating cancer of the present disclosure is confirmed in the experiment. […] The size of each primary tumor, which is estimated as length×width×height×π/6, is assessed using a pair of caliper every 2-3 days. […] The Balb/c tumor mice with the rechallenged tumor are no longer treated, but the size of each rechallenged tumor is observed and recorded. […]
# [1] = at 24 hours, 5 μg/mL free R848, 50 μg/mL PANI-GCS-R848
# [2] = at 48 hours and 72 hours (after 24 hours)
smiles,measurement,setting,value
"CCOCc1nc2c(N)nc3ccccc3c2n1CC(C)(C)O [R848, resiquimod]",IL-6 secretion,BMDCs; [1],notable levels
same,TNF-α secretion,BMDCs; [1],notable levels
same,IL-6 secretion,BMDCs; [2],do not change significantly
same,TNF-α secretion,BMDCs; [2],do not change significantly
same,cytotoxicity (cell viability),CT26 cells,not significantly cytotoxic
same,growth of the primary tumor,CT26 primary tumor,slightly delayed
